Key:
Type in all cases: functional
Cavia porcellus [1] = species: Cavia porcellus; experiment: Compound was tested for contraction of guinea-pig ileum; details: read-out: ED50 (the source's name)
Cavia porcellus [2] = species: Cavia porcellus; experiment: Compound was tested for relaxation of guinea-pig trachea precontracted in histamine
Homo sapiens = species: Homo sapiens; experiment: Compound was tested for inhibition of ADP-induced human platelet aggregation
Rattus norvegicus = species: Rattus norvegicus; experiment: Compound was tested for contraction of rat isolated uterine; details: read-out: ED50 (the source's name)
Cavia porcellus [3] = species: Cavia porcellus; experiment: Compound was tested for relaxation of guinea-pig trachea precontracted with histamine
Cavia porcellus [4] = species: Cavia porcellus; experiment: Compound was tested for […] PGE2-induced relaxation of guinea-pig trachea precontracted with carbachol

| SMILES | EC50 (Cavia porcellus [1]) [nM] | IC50 (Cavia porcellus [2]) [nM] | IC50 (Homo sapiens) [nM] | EC50 (Rattus norvegicus) [nM] | IC50 (Cavia porcellus [3]) [nM] | IC50 (Cavia porcellus [4]) [nM] |
| --- | --- | --- | --- | --- | --- | --- |
| CC/C=C\C[C@H](O)C#C[C@H]1[C@H](O)CC(=O)[C@@H]1C/C=C\CCCC(=O)O | 260 | 5400 | 2600 |  |  |  |
| CCCCC[C@H](O)C#C[C@@H]1[C@@H](CCCCCCC(=O)O)[C@@H](O)C[C@H]1O | 20 |  |  | 1000 |  |  |
| CCCCC[C@H](O)C#C[C@H]1[C@H](O)CC(=O)[C@@H]1CCCCCCC(=O)O | 0.23 |  | 3000 |  | 8900 |  |
| CCCCC[C@H](O)C#C[C@H]1[C@H](O)CC(=O)[C@@H]1C/C=C\CCCC(=O)O | 0.18 |  | 3.4 |  |  | 2.6 |

Reference: ChEMBL document CHEMBL1130839, “Synthesis and pharmacological activities of 13-dehydro derivatives of primary prostaglandins” (Bioorg Med Chem Lett, 1998)
